What was measured:
[1] = biological target: T1, PPAR-γ (Homo sapiens, UniProt P37231); assay: PPAR-γ activation, GAL4-PPAR-γ-LBD luciferase reporter in BE(2)C cells; format: cell-based; conditions: 20 h treatment, up to 50 μM, FIGS. 1A, 1B
T1 construct: expressed in transfected cells; host or cells: BE(2)C cells
T1 sequence (P37231 238-503 limits assumed): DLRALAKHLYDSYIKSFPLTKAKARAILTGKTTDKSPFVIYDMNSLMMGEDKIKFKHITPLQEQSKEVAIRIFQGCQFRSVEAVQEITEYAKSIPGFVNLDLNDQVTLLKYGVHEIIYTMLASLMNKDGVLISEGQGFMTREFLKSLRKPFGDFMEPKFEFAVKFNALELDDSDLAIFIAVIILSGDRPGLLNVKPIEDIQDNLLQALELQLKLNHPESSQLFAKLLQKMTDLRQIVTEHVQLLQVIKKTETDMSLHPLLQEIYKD
Experimental: (§1) To examine whether amodiaquine acts as a ligand of […] or PPAR-α, three types of vectors were used.
(§2) The activation of luciferase expression was measured after BE(2)C cells were transformed with a GAL4-PPAR-γ-LBD plasmid or a GAL4-PPAR-α-LBD plasmid, a GAL4-luciferase vector, and a β-galactosidase vector for 6 hours, treated with amodiaquine for 20 hours, and then grown in a 5% CO2 incubator.

[2] = test system: high fat-induced obesity mice; assay: Intraperitoneal insulin tolerance test (IPITT) in high fat-induced obesity mice; format: in vivo, mouse; conditions: for blood glucose concentration after 2 hours vs fasting blood glucose (IPITT): HFD with simultaneous administration, 0.5 U/kg insulin i.p., FIG. 7B; for time of lowest blood glucose level after insulin (IPITT): administration after long-term HFD-induced obesity, FIG. 7C
Text: For measurement of the blood glucose concentration, an intraperitoneal insulin tolerance test (IPITT) was used.

[3] = test system: C2C12 myotube cells; assay: Glucose uptake ([3H]2-DOG) in C2C12 myotube cells; format: cell-based, mouse; conditions: 10 μM or 30 μM, 24 h; compared with 50 μM rosiglitazone; FIG. 2
Experimental: The phosphorylation of insulin receptors occurs due to signal transduction by insulin in muscle, adipose, liver cells, and the like, and accordingly, when various proteins located downstream are phosphorylated, glucose uptake increases, resulting in reduced blood glucose. Thus, a glucose uptake evaluation experiment was carried out to identify whether amodiaquine is effective for diabetes. C2C12 myoblasts, which are muscle cells, were cultured in DMEM containing 10% […]. When the cell density reached about 80% to about 90%, the medium was replaced with fresh 2% horse serum-containing DMEM, and cell differentiation of the C2C12 myoblasts into myotubes was induced to completely differentiate the cells, and then an experiment was carried out. […] Washing was repeated three times every twenty minutes. Subsequently, 1 ml of KRP buffer was injected, a solution (0.2 mM, 0.2 μCi) prepared by dissolving unlabeled 2-DOG and [^3H]2-DOG (Amersham Pharmacia) in KRP buffer was added to the resulting cells at 37° C. to allow treatment for exactly 10 minutes.

[4] = biological target: T2, PPAR-α (Homo sapiens, UniProt Q07869); assay: PPAR-α activation, GAL4-PPAR-α-LBD luciferase reporter in BE(2)C cells; format: cell-based; conditions: 20 h treatment, up to 50 μM, FIGS. 1C, 1D
T2 construct: expressed in transfected cells; host or cells: BE(2)C cells
T2 sequence (Q07869 239-466 limits assumed): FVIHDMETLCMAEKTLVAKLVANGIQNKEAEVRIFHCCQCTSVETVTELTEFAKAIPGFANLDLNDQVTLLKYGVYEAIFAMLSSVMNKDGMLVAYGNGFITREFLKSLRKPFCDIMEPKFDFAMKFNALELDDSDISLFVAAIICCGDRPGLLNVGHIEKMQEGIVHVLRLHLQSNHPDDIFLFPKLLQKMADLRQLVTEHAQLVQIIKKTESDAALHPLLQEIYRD
Experimental: as §1, §2

[5] = test system: high fat-induced obesity mice; assay: Fatty liver histology (hematoxylin & eosin) in high fat-induced obesity mice; format: in vivo, mouse; conditions: HFD mice, 14 weeks and 22 weeks; FIGS. 8A and 8B
Text: Among the experimental animals designed in Example 5, mice in the high fat-induced obesity mouse group fed a high fat diet for 14 weeks with drug administration and high fat-induced obesity mice fed a high fat diet for 7 weeks with drug administration after obesity was induced by a high fat diet for 15 weeks were sacrificed by cervical spine dislocation, fixed on a dissection stand, and subjected to abdominal dissection with a scalpel to extract the liver. The extracted liver tissue was fixed in a 10% formalin solution to prevent contractile deformation. After 24 hours, the fixed tissue was washed with running water, and then general tissue dehydration, clearing, and penetration were performed thereon using an automatic tissue processor (6460B, Sakura, Japan) for 14 hours, and manufacture of paraffin blocks and cooling were performed using an automated embedding device (Tissue-Tex, Japan). The manufactured paraffin blocks were continuously sliced to a thickness of 4 m to 5 m in a vertical direction of the tissue using a rotary microtome 2040 (Japan), and attached to slides after processing using a floating hot water tank and a slide warming table. […]

[6] = test system: KKAy mice; assay: Glycated hemoglobin (HbA1C) in KKAy mice (amodiaquine); format: in vivo, mouse; conditions: 18 mg/kg oral daily for 6 weeks, FIG. 4
Experimental: As in Example 3, the first group of experimental animals was administered PBS and set as a control, and the second group was orally administered amodiaquine at a concentration of 18 mg/kg using a 1 ml syringe daily for 6 weeks.

[7] = test system: high fat-induced obesity mice; assay: Body weight of high fat-induced obesity mice; format: in vivo, mouse; conditions: amodiaquine 20 mg/kg
Experimental: To measure a decrease in body weight of mice by amodiaquine, 7-week-old male C57BL/6 mice (Charles River Laboratories, Tokyo, Japan) were purchased and raised under certain conditions (temperature: 22±2° C., relative humidity: 55±10%, and light/dark cycle: 12 hours). The mice were grouped into 7 individuals per group, freely fed water and diets in a cage, and then acclimated for 1 week before an experiment.
An average body weight was calculated by dividing the sum of weights of 7 mice per group by the number of mice.

[8] = test system: ACOX, CPT-1, and mCAD genes; assay: Expression of PPAR-α target genes in liver, muscle and adipose tissues (real-time PCR); format: in vivo, mouse; conditions: muscle, adipose tissues, HFD 14 weeks, FIGS. 9A-9C
Text: Among the experimental animals designed in Example 5, mice of the high fat-induced obesity mouse groups fed a high fat diet for 14 weeks were sacrificed by cervical spine dislocation, fixed on a dissection stand, and then subjected to dissection with a scalpel to extract liver, muscle, and adipose tissues, and primer base sequences of (β-actin, ACOX, CPT-1, and mCAD are as follows:
After each tissue was disrupted using a grinding instrument, RNA was extracted using TRIzol, and cDNA was synthesized using reverse transcription polymerase chain reaction (RT PCR). […] The ACOX, CPT-1, and mCAD genes were calibrated with β-actin, thereby obtaining resultant values.

[9] = test system: KKAy mice; assay: Fasting blood glucose in KKAy mice (amodiaquine); format: in vivo, mouse; conditions: 18 mg/kg oral daily for 6 weeks, control 132.4 mg/dl
Experimental: (§3) 5-week-old KKAy purchased from Clea Japan was preliminarily raised for one week and then divided into two groups (5 individuals per group). The first group was administered PBS and set as a negative control, and the second group was orally administered amodiaquine at a concentration of 18 mg/kg daily for 6 weeks. […] For measurement of the blood glucose concentration, an intraperitoneal glucose tolerance test (IPGTT) was used.

[10] = test system: KKAy mice; assay: Intraperitoneal glucose tolerance test (IPGTT) in KKAy mice; format: in vivo, mouse; conditions: 18 mg/kg oral daily for 6 weeks, 2 g/kg glucose i.p., control 293.2 mg/dl
Experimental: as §3

[11] = test system: high fat-induced obesity mice; assay: Oral glucose tolerance test (OGTT) in high fat-induced obesity mice; format: in vivo, mouse; conditions: HFD mice, 2 g/kg glucose oral; HFD control 180.5 mg/dl; FIG. 7A
Experimental: After fasting for 16 hours, 2 g/kg of glucose was orally administered to each of the control and experimental group animals, and a blood glucose concentration was measured every 30 minutes for 2 hours. For measurement of the blood glucose concentration, an oral glucose tolerance test (OGTT) was used.

[12] = test system: high fat-induced obesity mice; assay: Heat production, 4° C. cold test in high fat-induced obesity mice; format: in vivo, mouse; conditions: HFD 14 weeks, up to 6 hours at 4° C.; FIG. 6
Experimental: To measure the heat production capability of mice fed a high fat diet for 14 weeks among the experimental animals designed in Example 5, a 4° C. cold test was performed (Spiegelman B. M. et al., Cell 92: 829-839, 1998). Hereinafter, the measurement method will be described in detail. A body temperature of mice in the high fat-induced obesity mouse group was measured before being exposed to 4° C., and recorded as an experiment start measurement temperature, and then the mice were exposed in a 4° C. room for up to 6 hours, followed by measurement of body temperature every hour. The body temperature was measured using a rectal thermometer for a mouse (Testo 925, Germany). A heat production measurement value indicated a temperature measured every hour.

| SMILES | PPAR-γ activity (luciferase expression) [1] | blood glucose concentration after 2 hours vs fasting blood glucose (IPITT) [2] | glucose uptake [3] | PPAR-α activity (luciferase expression) [4] | liver appearance (fat accumulation, H&E) [5] | glycated hemoglobin production as compared to control mice [6] | body weight vs high fat-induced obesity mice ([7]; HFD with substance administration for 14 weeks, FIG. 5A) | body weight vs high fat-induced obesity mice ([7]; substance administration for 7 weeks after obesity induced by HFD for 15 weeks, rosiglitazone 50 mg/kg, FIG. 5C) | increase in expression amounts of the ACOX, CPT-1, and mCAD genes as compared to the control [8] | time of lowest blood glucose level after insulin (IPITT) [2] | fasting blood glucose concentration [9] | blood glucose concentration 2 hours after glucose loading (IPGTT) [10] | blood glucose concentration 2 hours after glucose loading (OGTT) [11] | body temperature on exposure to 4° C. (heat production) [12] |
| --- | --- | --- | --- | --- | --- | --- | --- | --- | --- | --- | --- | --- | --- | --- |
| Cc1cccc(Nc2cc(Cl)nc(SCC(=O)O)n2)c1C [WY-14,643] | did not exhibit PPAR-γ activity | maintained at a lower level than the fasting blood glucose concentration |  |  |  |  |  |  |  |  |  |  |  |  |
| CCN(CC)Cc1cc(Nc2ccnc3cc(Cl)ccc23)ccc1O [amodiaquine] | higher PPAR-γ activity in a concentration-dependent manner than that of the positive control treated with rosiglitazone | maintained at a lower level than the fasting blood glucose concentration | further increased as compared to that in the group treated with rosiglitazone | high PPAR-α activity in a concentration-dependent manner | almost the same appearance as that of normal mice | approximately 69% | significantly lower than that of the high fat-induced obesity mice | significant decrease in body weight | ≥ 215 fold | 30 min | 100.2 mg/dL | 207 mg/dL | 139.1 mg/dL | smaller decrease in body temperature than that of the high fat-induced obesity mice |
| CN(CCOc1ccc(CC2SC(=O)NC2=O)cc1)c1ccccn1 (centres unmarked) [rosiglitazone] |  |  |  |  |  |  |  |  |  | 60 min |  |  |  |  |

Reference: patent US10792280B2, “Pharmaceutical composition comprising amodiaquine and anti-diabetes drug as effective ingredient for prevention or treatment of diabetes” (NOVMETAPHARMA CO., LTD., priority 2016, dated 2020)
